Data on four compounds can be found in PMC8861050, “Design, synthesis and evaluation of novel 2-oxoindoline-based acetohydrazides as antitumor agents” (Scientific Reports, 2022).

For one data set, the system named is SW620 (colon cancer). The data set is described as follows: SRB cytotoxicity assay, SW620. In kind it is cell-based. The conditions noted are these: Homo sapiens, SW-620, 48 h incubation, mean ± SEM of 3 independent experiments. The text has this: (§1) Three human cancer cell lines: colon cancer (SW620), prostate cancer (PC3), and lung cancer (NCI-H23) were used for sceening the cytotoxicity of the compounds. The cancer cells were purchased from American Type Culture Collection (Manassas, VA, USA). Other reagents/media for cell culture were obtained from GIBCO (Grand Island, New York, USA). The testing cancer cells were culture in Dulbecco’s Modified Eagle Medium until confluence. Then, they were trypsinized and suspended at the level of 3 × 10^4 cells/mL of cell culture medium. On day 0, cancer cells were seeded at a volume of 180 µL/well of 96-well plates and incubated for 24 h at 37 °C in a 5% CO2 incubator. On day 1, 20 µL of various concentrations of testing compounds were added to each well of the 96-well plates. Chemicals were dissolved in dimethyl sulfoxide (DMSO, stock) and diluted in culture medium (1% DMSO) before adding to the culture. After 48 h incubation, the sulforhodamine B assay was used for cell density determination with slight modifications[22]–[26]. The Probits were used for the calculation of IC50 values. The reported IC50 were the averages of three independent screening (SD ≤ 10%)[27].
(§2) Two series of compounds synthesized (4a–p and 5a–f) were evaluated for their cytotoxicity against three human cancer cell lines, including SW620 (colon cancer), PC3 (prostate cancer), NCI-H23 (lung cancer), using SRB method as described previously[22] with slight modifications[23]–[26].
For orientation: The SRB assay estimates cell density from bound dye.

A further data set deals with U937 cells. Briefly: Annexin V-FITC/PI apoptosis assay. In kind it is cell-based, human. Conditions: U937, 50 µM, 24 h. How it is done:
The Annexin V-FITC/PI dual staining assay was used to determine the percentage of apoptotic cells. U937 cells (5 × 10^5/mL per well) were plated in 6-well culture plates and allowed to grow for 24 h. In our first experiment, we examined the effects of 4f, 4h, 4n, 4o, 4p, and PAC-1 on apoptosis at 50 µM. In the second experiment, we examined the dose-dependent effect of 4o at 5, 10, and 30 µM and PAC-1 at 30 µM on apoptosis. The cells were treated with compounds for 24 h, and then harvested. The harvested cells were washed twice with ice-cold PBS and incubated in the dark at room temperature in […] of 1 × binding buffer containing 1 µL Annexin V-FITC and […] PI. After 15 min incubation, cells were analyzed for percentage undergoing apoptosis using a FACScalibur flow cytometer (BD Biosciences). The data were processed using Cell Quest Pro software (BD Biosciences).
Figure 5 Apoptosis (Annexin V/PI) analysis of cells after treatment with some compounds. U937 cells were treated with compounds (50 µM) for 24 h. The harvested cells were incubated with Annexin V-FITC and PI and analyzed by using flow cytometry. Ten thousand cells were acquired (n = 3). UN untreated, VH vehicle (DMSO. 0.1%). Representative dot plots (A). Live cells, left down in dot plot. Early apoptotic cells, right down. Necrotic cells, left up, Late apoptotic cells, right up. Bar graph of late apoptotic cells (B). p values were calculated using one-way ANOVA in GraphPad Software (San Diego, CA, USA). *p < 0.01 vs VH control. TEXT PRINTED IN THE PICTURE: (A) PAC-1: 10.40%; 29.30%; 12.70% | (A) 4f: 0.52%; 6.05%; 5.41% | (A) 4h: 0.89%; 13.20%; 7.67% | (A) 4n: 0.44%; 6.83%; 5.73% | (A) 4o: 0.67%; 17.30%; 8.17% | (A) 4p: 1.60%; 13.00%; 5.86% DOUBTS OF THE COPYIST ABOUT THIS PICTURE: The quadrant percentages are in small italic print over the dot plots, so 3, 5, 6, 8 and 9 cannot always be told apart. All values given are best readings. / PAC-1: 10.40%, 29.30% and 12.70% are best readings (29.30 could be 28.30) / 4f: 0.52%, 6.05% and 5.41% are best readings (6.05 could be 6.06 or 8.05) / 4h: 0.89%, 13.20% and 7.67% are best readings (0.89 could be 0.86 or 0.69) / 4n: 0.44%, 6.83% and 5.73% are best readings (6.83 could be 6.63 or 6.88) / 4o: 0.67%, 17.30% and 8.17% are best readings (8.17 could be 6.17) / 4p: 1.60%, 13.00% and 5.86% are best readings (5.86 could be 5.88 or 5.66) / The picture prints no measure for the percentages; only their quadrant position tells them apart. They are listed upper left, upper right, lower right. / The plots UN (0.70%, 2.31%, 3.03%) and VH (1.75%, 2.43%, 3.57%) are controls, not substances, and are left out of the lines.
Figure 6 Apoptosis (Annexin V/PI) analysis of cells after treatment with different concentrations of compound 4o. U937 cells were treated with compound 4o at 5, 10 and 30 µM or PAC-1 (30 µM) for 24 h. The harvested cells were incubated with Annexin V-FITC and PI and analyzed by using flow cytometry. Ten thousand cells were acquired (n = 3). UN untreated, VH vehicle (DMSO. 0.1%). Representative dot plots (A). Live cells, left down in dot plot. Early apoptotic cells, right down. Necrotic cells, left up, Late apoptotic cells, right up. Bar graph of late apoptotic cells (B). p values were calculated using one-way ANOVA in GraphPad Software (San Diego, CA, USA). *p < 0.01 vs VH control.

The subject of another data set is PC3 (prostate cancer). Briefly: SRB cytotoxicity assay, PC3. It is filed as cell-based. Conditions: Homo sapiens, 48 h incubation, mean ± SEM of 3 independent experiments.
Excerpt: as §1, §2

In the next data set the test system is NCI-H23 (lung cancer). The data set is described as follows: SRB cytotoxicity assay, NCI-H23. It is filed as cell-based. Conditions: Homo sapiens, 48 h incubation, mean ± SEM of 3 independent experiments.
Excerpt: as §1, §2

Data set [1] deals with U937 human lymphoma cells. The data set is described as follows: Cell cycle analysis (PI, flow cytometry). In kind it is cell-based. The conditions noted are these: 50 µM, 24 h. As for the experimental part: U937 human lymphoma cells (5 × 10^5/mL per well) were plated in 6-well culture plates and allowed to grow for 24 h. In our first experiment, we examined the effects of 4f, 4h, 4n, 4o, 4p, and PAC-1 on cell cycles at 50 µM. In the second experiment, we examined the dose-dependent effect of 4o at 5, 10, and 30 µM and PAC-1 at 30 µM on cell cycles. The cells were treated with compounds for 24 h, and then harvested. The harvested cells were washed twice with ice-cold PBS, fixed in 75% ice-cold ethanol, and stained with propidium iodide (PI) in the presence of RNase at room temperature for 30 min. The stained cells were analyzed for DNA content using a FACScalibur flow cytometer (BD Biosciences, San Jose, CA, USA) and the data were processed using Cell Quest Pro software (BD Biosciences).
Figure 3 Cell cycle analysis after treatment with some compounds. U937 human lymphoma cells were treated with compounds (50 µM) for 24 h. The harvested cells were stained with propidium iodide (PI) in the presence of RNase and then were analyzed for DNA content by using flow cytometry. Ten thousand cells were acquired (n = 3). UN untreated, VH vehicle (DMSO. 0.1%). Representative histograms (A) and bar graphs (B) are shown. p values were calculated using one-way ANOVA in GraphPad Software (San Diego, CA, USA). *p < 0.01 vs VH control.
Figure 4 Cell cycle analysis under treatment with different concentrations of compound 4o. U937 human lymphoma cells were treated with compound 4o at 5, 10 and 30 µM or PAC-1 (30 µM) for 24 h. The harvested cells were stained with propidium iodide (PI) in the presence of RNase and then were analyzed for DNA content by using flow cytometry. Ten thousand cells were acquired (n = 3). UN untreated, VH vehicle (DMSO. 0.1%). Representative histograms (A) and bar graphs (B) are shown. p values were calculated using one-way ANOVA in GraphPad Software (San Diego, CA, USA). *p < 0.01 vs VH control.
On the technique in general: A flow cytometer gives signals particle by particle.

Data set [2] can be described thus: Cytotoxicity on normal mesenchymal stem cells. In kind it is cell-based. Conditions: human bone marrow-derived mesenchymal stem cells; mean ± SEM; read-out: Cytotoxicity (IC50) MSCs. As for the experimental part: Overally, 5-fluorinated compounds (4i–p and 5d–f) were slightly more cytotoxic than non-fluorinated ones (4a–h, 5a–c). For compounds in series 4a–p, it was observed that, electron-releasing substituents (–OCH3, OH) were generally better than electron-withdrawing groups (–Cl) for cytotoxicity. Especially, compounds with 2-OH substituents produced the best cytotoxicity. The addition of either 4-OCH3 or 3-allyl groups further enhanced cytotoxicity of the related compounds (4g, 4h and 4o, 4p).

Each structure is given as a SMILES string.

`C=CCc1cccc(/C=N/NC(=O)CN2C(=O)Cc3cc(F)ccc32)c1O` [Compound 4p, (E)-N'-(3-Allyl-2-hydroxybenzylidene)-2-(5-fluoro-2-oxoindolin-1-yl)acetohydrazide]: the melting point was 194 to 195 °C. For the same compound, the IC50 with SW620 (colon cancer) was found to be 3.65 ± 0.23 µM. Moreover, in the data set on U937 cells, the “Apoptotic effects compared among the representative compounds” value is recorded as “more prominent”; the “Induction of apoptosis (Annexin V-FITC/PI)” value (shortened to “Induction of apoptosis”) is “induced early, and more substantially, late apoptosis”. Further, the IC50 with PC3 (prostate cancer) was 5.11 ± 0.08 µM. Moreover, the IC50 in the data set with NCI-H23 (lung cancer) stood at 2.7 ± 0.15 µM. In data set [1], the “Effect on cell cycle distribution” value is listed as “accumulated U937 cells in the S phase”. Further, the IC50 in data set [2] turned out to be 15.7 ± 0.46 µM.
As for `O=C(CN1C(=O)Cc2cc(F)ccc21)N/N=C/c1ccccc1O` [Compound 4n, (E)-N'-(2-Hydroxybenzylidene)-2-(5-fluoro-2-oxoindolin-1-yl)acetohydrazide], the melting point is 173 to 174 °C. In the data set with SW620 (colon cancer), half-maximal inhibition (IC50) required 4.72 ± 0.75 µM. The “Induction of apoptosis” value in the data set on U937 cells was “induced early, and more substantially, late apoptosis”. The same compound showed an IC50 with PC3 (prostate cancer) of 5.08 ± 0.26 µM. The compound further registered a half-inhibitory concentration (IC50) in the data set on NCI-H23 (lung cancer) of 3.7 ± 0.4 µM. For the same compound, the “Effect on cell cycle distribution” value in data set [1] is given as “accumulated U937 cells in the S phase”. Besides, the IC50 in data set [2] is 21 ± 0.51 µM.
Regarding `C=CCc1cccc(/C=N/NC(=O)CN2C(=O)Cc3ccccc32)c1O` [Compound 4h, (E)-N'-(3-Allyl-2-hydroxybenzylidene)-2-(2-oxoindolin-1-yl)acetohydrazide], the melting point fell in the range of 185 to 186 °C. Further, the IC50 in the data set with SW620 (colon cancer) came to 4.21 ± 0.17 µM. Moreover, in the data set with U937 cells, the “Apoptotic effects compared among the representative compounds” value is “more prominent”; the “Induction of apoptosis” value is “induced early, and more substantially, late apoptosis”. The same compound registered an IC50 in the data set on PC3 (prostate cancer) of 5.65 ± 0.19 µM. The compound further registered an IC50 with NCI-H23 (lung cancer) of 3.05 ± 0.22 µM. Moreover, the “Effect on cell cycle distribution” value in data set [1] is given as “accumulated U937 cells in the S phase”. Besides, the IC50 in data set [2] came to 15.1 ± 0.93 µM.
In turn, `O=C(CN1C(=O)Cc2ccccc21)N/N=C/c1ccccc1O` [Compound 4f, (E)-N'-(2-Hydroxybenzylidene)-2-(2-oxoindolin-1-yl)acetohydrazide] yielded a melting point of 173 to 174 °C. For the same compound, 4.77 ± 0.53 µM corresponded to half-maximal inhibition in the data set with SW620 (colon cancer) (IC50). In addition, the “Induction of apoptosis” value with U937 cells was “induced early, and more substantially, late apoptosis”. This compound came in with an IC50 in the data set with PC3 (prostate cancer) of 7.34 ± 0.04 µM. In the data set on NCI-H23 (lung cancer), this compound yielded an IC50 of 4.3 ± 0.41 µM. The “Effect on cell cycle distribution” value in data set [1] is listed as “accumulated U937 cells in the S phase”. Besides, the IC50 in data set [2] was determined as 23.2 ± 0.26 µM.

The IC50 is the concentration needed to halve the response being measured. In general, melting point refers to the temperature, or range, at which the solid turns liquid.
